Measured values taken from PubChem BioAssay AID588673 (Johns Hopkins Ion Channel Center, 2011).
Activity calls are given as the source filed them.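 How the source made its calls: active means raises KCNQ1 potassium channel current at one or more doses and a concentration response curve can be fitted; inactive means no activation at any dose, or no fittable curve.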

Molecular target: Potassium voltage-gated channel subfamily KQT member 1 (Homo sapiens) (UniProt P51787)
Assay: KCNQ1 potassium current enhancement – automated patch clamp, CHO cells, SAR follow-up (AID 588673)

Sequence of Potassium voltage-gated channel subfamily KQT member 1 (Homo sapiens) (P51787 whole entry, looked up): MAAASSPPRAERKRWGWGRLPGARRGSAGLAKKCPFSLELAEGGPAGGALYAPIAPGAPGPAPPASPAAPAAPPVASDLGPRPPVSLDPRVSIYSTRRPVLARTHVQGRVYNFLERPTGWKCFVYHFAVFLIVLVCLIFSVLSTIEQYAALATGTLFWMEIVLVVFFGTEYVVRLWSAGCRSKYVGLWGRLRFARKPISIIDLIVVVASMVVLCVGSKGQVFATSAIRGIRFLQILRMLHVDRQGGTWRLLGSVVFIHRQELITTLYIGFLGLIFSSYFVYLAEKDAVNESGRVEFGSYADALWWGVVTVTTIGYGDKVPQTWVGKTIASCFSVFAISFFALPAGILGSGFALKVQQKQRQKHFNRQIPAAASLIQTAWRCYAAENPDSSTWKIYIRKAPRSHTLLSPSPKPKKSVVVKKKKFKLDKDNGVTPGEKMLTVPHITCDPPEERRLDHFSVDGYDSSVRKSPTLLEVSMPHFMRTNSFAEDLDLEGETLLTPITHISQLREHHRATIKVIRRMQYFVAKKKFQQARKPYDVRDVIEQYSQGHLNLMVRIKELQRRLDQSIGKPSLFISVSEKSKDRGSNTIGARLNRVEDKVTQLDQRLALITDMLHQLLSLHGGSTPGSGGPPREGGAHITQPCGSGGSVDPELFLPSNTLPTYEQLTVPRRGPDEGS

**Q.** `COc1ccc(-c2csc(NC(=O)[C@@H]3CCCCN3S(=O)(=O)c3ccccc3)n2)cc1` was tested. Which “current activation, percent increase” value (at 30 µM (top of the series)) did it give?
**A.** inactive

**Q.** How did the IC50, inhibition of current turn out when `COc1ccc(-c2csc(NC(=O)[C@H]3CCCCN3S(=O)(=O)c3ccccc3)n2)cc1` was run?
**A.** 1390 nM

**Q.** Which IC50, inhibition of current does the source give for `COc1ccc(-c2csc(NC(=O)C3CCCCN3S(=O)(=O)c3ccccc3)n2)cc1` (stereo not drawn) here?
**A.** 1660 nM
